Experimental findings from ChEMBL document CHEMBL5029187 (J Med Chem, 2021) are described below.

For data set [1], the system named is HeLa. Kind of data set: Cytotoxicity against human HeLa cells assessed as reduction in cell viability incubated for 48 hrs by MTT assay. It counts as functional, cell-based. A general note: Tetrazolium dyes change colour on reduction, which living cells bring about.
In data set [2] the test system is HepG2. The data set can be described thus: Cytotoxicity against human HepG2 cells assessed as reduction in cell viability incubated for 48 hrs by MTT assay. It counts as functional, cell-based. As to conditions: HepG2, 48 h.
The subject of data set [3] is A549. The data set can be described thus: Cytotoxicity against human A549 cells assessed as reduction in cell viability incubated for 48 hrs by MTT assay. To be noted: A549, 48 h. The class given is functional, cell-based.
For data set [4], the system named is SMMC-7721. Kind of data set: Cytotoxicity against human SMMC-7721 cells assessed as reduction in cell viability incubated for 48 hrs by MTT assay. It counts as functional, cell-based. As to conditions: SMMC-7721, 48 h.
The nature of data set [5]: Prodrug release in TE buffer assessed as increase in camptothecin level at 10 uM measured within 10 mins in the presence of GSH by HPLC analysis. The class given is ADME.
Data set [6] concerns HepG2. The data set can be described thus: Antitumor activity against human HepG2 cells xenografted BALB/c mouse assessed as reduction in tumor growth at 30 mg/kg, ip administered for once every 3 days measured after 15 days. The class given is functional, organism-based. To be noted: time 15.0 day.
A short description of data set [7]: Toxicity in human HepG2 cells xenografted BALB/c mouse assessed as reduction in body weight at 30 mg/kg, ip administered for once every 3 days measured after 15 days. It counts as organism-based. As to conditions: in vivo, 360 h, time 15 day. More on the design: scale not given: the % may be the effect or the level left. A general note: In xenograft studies the graft and the host belong to different species.

Data set [8] in a line: Antitumor activity against human HepG2 cells xenografted BALB/c mouse assessed as reduction in tumor weight at 30 mg/kg, ip administered for once every 3 days measured after 15 days. The class given is functional. More on the design: scale not given: the % may be the effect or the level left. As to conditions: time 15 day.
A short description of data set [9]: Toxicity in BALB/c mouse xenografted with human HepG2 cells assessed as death at 45 mg/kg, ip administered for once every 3 days measured after 15 days. It counts as organism-based. To be noted: in vivo, 360 h, time 15 day.
Data set [10] is described as follows: Drug uptake in human HepG2 cells increase in fluorescence level at 10 uM by fluorescence microscopy. It counts as ADME, cell-based. To be noted: hepg2, 10 µM, TDE = time-dependent effect.
Data set [11] concerns HepG2. Kind of data set: Cytotoxicity against human HepG2 cells assessed as reduction in cell viability in presence of H2O2 incubated for 48 hrs by MTT assay. The class given is functional, cell-based.
A short description of data set [12]: Prodrug activation assessed as increase in ferro cytochrome c production in presence of GSH and SOD by cytochrome c reduction assay.
Data set [13] in a line: Prodrug activation in TE buffer assessed as fold change in fluorescence intensity at 10 uM in presence of GSH.
Data set [14] in a line: Prodrug activation in human HepG2 cells assessed as increase in camptothecin level by measuring fluorescence level at 10 uM by fluorescence microscopy. It counts as cell-based. To be noted: hepg2, 10 µM, TDE = time-dependent effect, time 15-90 min.
In data set [15] the test system is HepG2. The data set can be described thus: Induction of ROS generation in human HepG2 cells assessed as increase in ROS accumulation for 6 hrs by DCFH-DA staining based fluorescence assay. The class given is functional, cell-based. To be noted: dose 2-5 µM.
The subject of data set [16] is HepG2. Kind of data set: Inhibition of redox balance in human HepG2 cells assessed as reduction in GSH/GSSG ratio incubated for 24 hrs. The class given is functional, cell-based.
Data set [17] deals with HepG2. Kind of data set: Induction of apoptosis in human HepG2 cells assessed as increase in apoptotic cells for 48 hrs by FITC-annexin V/PI double staining based flow cytometry. The class given is functional, cell-based. For orientation: A flow cytometer gives signals particle by particle.
Data set [18] deals with HepG2. The data set can be described thus: Inhibition of redox balance in human HepG2 cells assessed as reduction in cellular thiols incubated for 24 hrs. It counts as functional, cell-based.
Data set [19] can be described thus: GSH reactivity assessed as oxidation of GSH to GSSG at 10 uM measured after 60 mins by HPLC analysis. It counts as ADME. To be noted: 1 h.
Data set [20] can be described thus: Prodrug activation assessed as changes in fluorescence intensity in presence of GSH at 100 uM incubated for 12 hrs further incubated with selenol probe Probe 1.
Data set [21] can be described thus: Prodrug activation assessed as fluorescence intensity in presence of 5 mM GSH at 100 uM incubated for 12 hrs further incubated with selenol probe Probe 1 followed by addition of 1 mM GSH measured after 4 mins. To be noted: 5000 µM.
Data set [22] in a line: Prodrug activation assessed as production of selenol intermediate concentration in the presence of GSH incubated with Probe 1.
The nature of data set [23]: Prodrug activation in TE buffer assessed as alterations in fluorescence intensity at 10 uM incubated for 60 mins. As to conditions: 1 h.
Data set [24] in a line: Prodrug activation assessed as increase in fluorescence intensity in presence of Cys at 10 uM incubated for 15 mins by HPLC analysis. As to conditions: 0.25 h.
The nature of data set [25]: Prodrug activation assessed as increase in fluorescence intensity in presence of GSH at 10 uM incubated for 60 mins. To be noted: 1 h.

Calls of active or inactive are those of the source. No cut-off for these calls is given here.

Broadly, the IC50 is the concentration that inhibits the measured activity by half. With `CC[C@@]1(OC(=O)OCCSSCCO)C(=O)OCc2c1cc1n(c2=O)Cc2cc3ccccc3nc2-1`, the IC50 in data set [1] is 9.62 µM; in [2] it was 4.86 µM; in [3], above 10 µM; in data set [4], above 10 µM. Besides, the Drug metabolism entry in [5] was “Metabolite_Notdetected”.

As for `CC[C@@]1(O)C(=O)OCc2c1cc1n(c2=O)Cc2cc3ccccc3nc2-1` [CAMPTOTHECIN], the IC50 in data set [1] was 8.28 µM; in [2], 3.5 µM; in data set [4] it was above 10 µM. Besides, the outcome in data set [6] and in [11] was Active. The Activity in data set [7] is below 10%; in data set [8], 53%; in data set [9], “Toxic”. The Drug uptake result in data set [10] is reported as “Tde”.

As for `CC[C@@]1(OC(=O)OCC[Se][Se]CCO)C(=O)OCc2c1cc1n(c2=O)Cc2cc3ccccc3nc2-1`, the Drug metabolism entry in [12] is “Not Active”; in data set [14], “Tde”; in data set [19], “Metabolite_Detected”; in data set [21] it was “Metabolite_Detected”; in data set [22] it was 104.4 µM; in data set [23], “Metabolite_Notdetected”. The Drug metabolism entry in data set [24] is listed as “Metabolite_Detected”. Further, the IC50 in data set [1] is 2.56 µM; in data set [2], 2.54 µM; in [3] it was 3.3 µM; in data set [4], 6.4 µM. In addition, the “fold change (FC)” value in [13] turned out to be 10. Moreover, the Activity is reported as 90% in [5]; below 10% in data set [7]; 75% in data set [8]; “Toxic” in [9]; “Not Active” in [20]. For the same compound, the outcome in data set [15], in data set [17] and in data set [6] was Active. The inhibition result in [16] and in data set [18] was “Active” in each case.

On to `CC[C@@]1(OC(=O)OC2(CO)C[Se][Se]C2)C(=O)OCc2c1cc1n(c2=O)Cc2cc3ccccc3nc2-1`, for which the IC50 in [1] was 9.17 µM; in data set [2], 6.02 µM; in data set [3] it was above 10 µM; in [4] it was above 10 µM. Further, the Drug metabolism entry is listed as “Metabolite_Detected” in data set [25] and “Metabolite_Notdetected” in data set [23].

For `CC[C@@]1(OC(=O)OC2CCCC2)C(=O)OCc2c1cc1n(c2=O)Cc2cc3ccccc3nc2-1`, the IC50 in data set [1], in data set [2], in data set [3] and in data set [4] was above 10 µM in each case.

Regarding `CC[C@@]1(OC(=O)OCCCCCCO)C(=O)OCc2c1cc1n(c2=O)Cc2cc3ccccc3nc2-1`, the IC50 in data set [1], in [2], in data set [3] and in [4] was above 10 µM in each case.

As for `CC[C@@]1(OC(=O)NC2CCCC2)C(=O)OCc2c1cc1n(c2=O)Cc2cc3ccccc3nc2-1`, the IC50 in [1], in data set [2], in [3] and in [4] was above 10 µM throughout.

On to `CC[C@@]1(OC(=O)NC2C[Se][Se]C2)C(=O)OCc2c1cc1n(c2=O)Cc2cc3ccccc3nc2-1`, for which the IC50 in data set [1], in data set [2], in data set [3] and in data set [4] was above 10 µM throughout. Also, the Drug metabolism result in data set [25] and in data set [23] was “Metabolite_Notdetected” throughout.
